{"source": "patent US9845340B2", "about": "“Peptides that specifically bind HGF receptor (cMet) and uses thereof” (Dyax Corp., priority 2003, dated 2017)", "key": {"cMet-Fc fusion protein [1]": {"biological_target": "T1, cMet-Fc fusion protein (Homo sapiens, UniProt P08581)", "T1 sequence (P08581 25-307 limits assumed)": "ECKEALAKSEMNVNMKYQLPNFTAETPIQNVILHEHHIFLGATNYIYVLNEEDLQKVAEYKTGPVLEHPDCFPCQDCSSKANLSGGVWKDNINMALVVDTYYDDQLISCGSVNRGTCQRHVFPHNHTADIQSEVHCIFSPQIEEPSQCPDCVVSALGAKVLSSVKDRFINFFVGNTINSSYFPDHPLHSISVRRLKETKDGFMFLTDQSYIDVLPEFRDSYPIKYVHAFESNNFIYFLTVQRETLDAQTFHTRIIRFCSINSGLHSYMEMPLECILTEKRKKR", "T1 sequence (P08581 with tags, fused parts or gaps limits assumed)": "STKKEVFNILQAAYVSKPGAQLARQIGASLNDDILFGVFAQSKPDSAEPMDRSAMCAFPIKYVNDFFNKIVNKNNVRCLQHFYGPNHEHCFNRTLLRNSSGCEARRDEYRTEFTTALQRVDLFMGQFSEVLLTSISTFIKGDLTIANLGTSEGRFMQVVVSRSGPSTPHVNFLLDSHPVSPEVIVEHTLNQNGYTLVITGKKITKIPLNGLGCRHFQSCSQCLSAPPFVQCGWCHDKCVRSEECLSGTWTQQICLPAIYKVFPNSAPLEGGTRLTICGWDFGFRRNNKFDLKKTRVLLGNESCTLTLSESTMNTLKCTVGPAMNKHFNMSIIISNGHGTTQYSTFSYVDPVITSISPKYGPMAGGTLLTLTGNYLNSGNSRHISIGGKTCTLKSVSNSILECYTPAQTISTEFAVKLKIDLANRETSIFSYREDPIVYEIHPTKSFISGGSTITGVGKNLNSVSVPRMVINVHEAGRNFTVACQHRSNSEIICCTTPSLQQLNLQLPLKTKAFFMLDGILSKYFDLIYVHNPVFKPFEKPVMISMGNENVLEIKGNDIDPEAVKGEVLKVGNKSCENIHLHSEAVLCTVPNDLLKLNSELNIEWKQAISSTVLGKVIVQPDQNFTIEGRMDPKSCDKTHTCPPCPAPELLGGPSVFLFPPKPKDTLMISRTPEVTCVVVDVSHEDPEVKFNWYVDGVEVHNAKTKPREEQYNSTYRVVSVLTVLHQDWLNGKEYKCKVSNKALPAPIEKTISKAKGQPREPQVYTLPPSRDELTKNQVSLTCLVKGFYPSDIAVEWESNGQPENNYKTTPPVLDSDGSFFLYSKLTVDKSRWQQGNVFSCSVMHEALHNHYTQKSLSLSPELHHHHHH", "assay": "Protein phage ELISA: peptide-displaying phage binding to soluble cMet-Fc versus TRAIL-Fc", "conditions": "phage isolate; cMet-Fc vs. TRAIL-Fc", "method_in_brief": "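Plates coated with 0.5 μg/mL cMet-Fc or, as background, TRAIL-Fc, then blocked with 3% BSA in PBST. Peptide-displaying phage bound 2 h at room temperature. Detection with HRP-anti-M13 antibody.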"}, "[2]": {"biological_target": "T2, 3T3 cells that over-express human cMet (Homo sapiens, UniProt P08581)", "T2 construct": "expressed in transfected cells; host or cells: 3T3 cells", "T2 sequence (P08581 25-1390)": "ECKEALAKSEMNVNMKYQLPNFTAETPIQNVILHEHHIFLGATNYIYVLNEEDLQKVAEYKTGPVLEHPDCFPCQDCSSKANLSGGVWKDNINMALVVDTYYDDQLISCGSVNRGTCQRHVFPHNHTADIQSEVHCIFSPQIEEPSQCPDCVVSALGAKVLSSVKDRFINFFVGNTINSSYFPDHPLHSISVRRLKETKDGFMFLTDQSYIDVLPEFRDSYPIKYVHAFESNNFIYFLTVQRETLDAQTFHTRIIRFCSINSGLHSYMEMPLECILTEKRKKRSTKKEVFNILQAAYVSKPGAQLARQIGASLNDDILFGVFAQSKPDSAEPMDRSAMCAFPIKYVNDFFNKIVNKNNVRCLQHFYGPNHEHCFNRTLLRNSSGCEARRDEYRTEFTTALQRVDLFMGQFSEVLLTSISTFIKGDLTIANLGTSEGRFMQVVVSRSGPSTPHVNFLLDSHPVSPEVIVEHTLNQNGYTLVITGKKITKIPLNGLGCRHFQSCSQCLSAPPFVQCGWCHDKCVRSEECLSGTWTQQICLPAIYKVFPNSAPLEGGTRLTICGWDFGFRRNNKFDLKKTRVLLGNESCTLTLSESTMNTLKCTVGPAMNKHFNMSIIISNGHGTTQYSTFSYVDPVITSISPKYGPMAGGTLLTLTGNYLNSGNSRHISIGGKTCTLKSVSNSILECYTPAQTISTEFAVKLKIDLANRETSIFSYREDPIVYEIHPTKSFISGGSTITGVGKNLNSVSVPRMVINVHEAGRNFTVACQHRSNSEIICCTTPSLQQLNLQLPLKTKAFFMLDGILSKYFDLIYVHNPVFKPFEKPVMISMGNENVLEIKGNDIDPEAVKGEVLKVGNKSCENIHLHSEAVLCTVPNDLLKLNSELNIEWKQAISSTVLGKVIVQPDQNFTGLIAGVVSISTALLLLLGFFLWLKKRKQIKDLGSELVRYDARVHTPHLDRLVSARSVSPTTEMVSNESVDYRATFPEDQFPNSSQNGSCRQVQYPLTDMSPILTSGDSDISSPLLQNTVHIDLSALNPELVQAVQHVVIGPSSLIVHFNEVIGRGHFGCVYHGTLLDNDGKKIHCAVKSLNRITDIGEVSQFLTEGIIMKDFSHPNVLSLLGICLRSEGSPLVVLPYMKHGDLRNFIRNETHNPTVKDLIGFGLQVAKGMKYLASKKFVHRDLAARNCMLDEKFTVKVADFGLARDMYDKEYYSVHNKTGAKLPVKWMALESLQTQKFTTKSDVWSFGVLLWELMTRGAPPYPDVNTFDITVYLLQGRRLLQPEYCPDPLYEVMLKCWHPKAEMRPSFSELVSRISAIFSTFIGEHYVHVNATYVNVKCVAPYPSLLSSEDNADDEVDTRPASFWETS", "assay": "Whole cell ELISA of peptide-displaying phage", "type": "cell-based", "conditions": "phage isolate; 3T3 cells expressing human cMet vs. non-expressing 3T3 cells", "method_in_brief": "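3T3 cells over-expressing human cMet seeded 10^5/well, pelleted and fixed with 0.1% glutaraldehyde 12 min at 37 °C. Blocked peptide-displaying phage bound 1 h at room temperature; after PBST wash, bound phage detected with HRP-conjugated anti-M13 antibody.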"}, "SK-LMS-1 cells": {"system": "SK-LMS-1 cells", "assay": "Cellular proliferation assay (HGF-stimulated, BrdU incorporation)", "type": "cell-based", "conditions": "peptide 10 μM, HGF 50 ng/mL or 100 ng/mL, FIG. 10", "description": "Cellular proliferation assays were performed to identify cMet-binding peptides that antagonize HGF-stimulated proliferation. These in vitro studies utilized a leomyosarcoma cell line, SK-LMS-1, in which cells proliferate in response to HGF. SK-LMS-1 cells were seeded on 96-well plates at a density of 2000 cells/well. After a 24 hour incubation at 37 C, the cells were starved in culture media containing 0.1% BSA instead of 10% fetal bovine serum for 36 hours at 37 C. Fresh starvation media with or without a cMet-binding peptide (10 μM) was added to the respective wells and the cells were incubated for 2 hours at 37 C. […] HGF was then added at a concentration of either 50 ng/mL or 100 ng/mL and the cells were incubated for an additional 12 hours at 37 C. Proliferation was assessed by measuring the incorporation of BrdU (Calbiochem, San Diego, Calif.) as described by the manufacturer. Results are shown for SEQ ID NO:365 (FIG. 10)."}, "[3]": {"biological_target": "T3, cMet-Fc fusion protein (or similar target) (Mus musculus, UniProt P16056)", "T3 construct": "Fc", "T3 sequence (P16056 25-306 limits assumed)": "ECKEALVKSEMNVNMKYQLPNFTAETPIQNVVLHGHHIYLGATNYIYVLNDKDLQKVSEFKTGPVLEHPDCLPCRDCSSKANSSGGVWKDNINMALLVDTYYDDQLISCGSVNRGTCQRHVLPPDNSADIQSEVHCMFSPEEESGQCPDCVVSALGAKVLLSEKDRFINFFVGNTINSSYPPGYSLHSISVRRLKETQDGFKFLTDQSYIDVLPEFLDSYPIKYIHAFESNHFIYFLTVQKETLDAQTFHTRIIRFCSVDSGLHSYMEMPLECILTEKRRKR", "T3 sequence (P16056 307-929 limits assumed)": "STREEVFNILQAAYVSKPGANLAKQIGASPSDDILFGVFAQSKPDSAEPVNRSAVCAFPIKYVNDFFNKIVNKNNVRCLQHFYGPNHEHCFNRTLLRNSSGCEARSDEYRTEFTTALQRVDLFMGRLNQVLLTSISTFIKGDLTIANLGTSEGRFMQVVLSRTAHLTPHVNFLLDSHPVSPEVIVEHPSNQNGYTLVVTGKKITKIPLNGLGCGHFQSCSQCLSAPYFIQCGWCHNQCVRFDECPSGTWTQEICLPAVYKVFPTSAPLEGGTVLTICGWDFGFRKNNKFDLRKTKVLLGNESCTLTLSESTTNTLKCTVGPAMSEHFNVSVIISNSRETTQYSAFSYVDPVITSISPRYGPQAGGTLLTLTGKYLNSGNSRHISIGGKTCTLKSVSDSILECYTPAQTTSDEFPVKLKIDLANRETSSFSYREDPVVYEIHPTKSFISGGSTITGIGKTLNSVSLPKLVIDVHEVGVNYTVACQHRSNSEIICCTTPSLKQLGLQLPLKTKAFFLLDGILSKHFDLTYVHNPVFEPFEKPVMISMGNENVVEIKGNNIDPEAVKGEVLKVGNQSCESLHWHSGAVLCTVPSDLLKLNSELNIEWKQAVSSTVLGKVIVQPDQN", "assay": "Fluorescence anisotropy / polarization direct binding, mouse cMet", "parameters": "key: NB = no binding", "conditions": "fluorescein-labeled peptide", "description": "Fluorescence anisotropy measurements were performed in 384-well microplates in a volume of 10 μL in binding buffer (PBS, 0.01% Tween-20, pH 7.5) using a Tecan Polarion fluorescence polarization plate reader ([…]). The concentration of fluorescein-labeled peptide was held constant (20 nM) and the concentration of cMet-Fc fusion protein (or similar target) was varied. Binding mixtures were equilibrated for 10 minutes in the microplate at 30 C before measurement. The observed change in anisotropy was fit to the equation below via nonlinear regression to obtain the apparent KD. This equation (1) assumes that the synthetic peptide and cMet form a reversible complex in solution with 1:1 stoichiometry.\n[formula] where robs is the observed anisotropy, rfree is the anisotropy of the free peptide, rbound is the anisotropy of the bound peptide, KD is the apparent dissociation constant, cMet is the total cMet concentration, and P is the total fluorescein-labeled peptide concentration. KD was calculated in a direct binding assay (KD,B) and therefore these values represent cMet binding to the fluorescein labeled peptide."}, "cMet-Fc fusion protein [4]": {"biological_target": "T1, cMet-Fc fusion protein", "assay": "HGF competition protein ELISA", "conditions": "% of binding in the absence of HGF", "description": "This competition ELISA identifies peptides that serve as “HGF antagonistic peptides”, peptides that block HGF-mediated signaling events (e.g., proliferation). These assays were conducted using the peptide-displaying phage discovered from the initial selection and screening campaigns using the first generation peptide libraries. Briefly, 96-well plates were coated overnight at 4 C with 0.5 μg/mL of cMet-Fc fusion protein or TRAIL-Fc fusion protein (background). The plates were blocked for 2 hours at 37 C with 3% BSA in PBST. The plates were washed with PBST, and 100 μL of HGF (either at 100 ng/mL or 500 ng/mL in PBST) was added to each well. The plates were incubated for 30 minutes at room temperature after which the plates were washed with PBST and 70 μL of HGF (143 ng/mL or 714 ng/mL) or 70 μL of PBST was added to the respective wells. This was followed by an addition of 30 μL of peptide-displaying phage overnight culture to each well. The plates were incubated for 2 hours at room temperature, washed with PBST and cMet-binding peptide-displaying phage was detected using an HRP-conjugated anti-M13 antibody."}}}
{"compound": "GSWRFCGGEYSFQVCQDVAP (Synthetically generated cMet-binding peptide sequence) [SEQ ID NO: 365]", "values": [{"measurement": "Protein ELISA", "setting": "cMet-Fc fusion protein [1]", "result": 26.3, "unit": "fold over background"}, {"measurement": "WC ELISA", "setting": "[2]", "result": 1.33, "unit": "fold over background"}, {"measurement": "growth inhibitory properties (HGF-stimulated proliferation)", "setting": "SK-LMS-1 cells", "result": "growth inhibitory properties"}]}
{"compound": "CSCC[C@@H]1NC(=O)[C@@H](NC(=O)[C@H](CCSC)NC(=O)[C@H](CCC(=O)O)NC(=O)[C@@H]2CCCN2C(=O)[C@H](CO)NC(=O)CNC(C)=O)CSSC[C@@H](C(=O)N[C@@H](CC(N)=O)C(=O)N[C@@H](Cc2c[nH]cn2)C(=O)N[C@@H](Cc2c[nH]cn2)C(=O)N[C@@H](C)C(=O)N2CCC[C@H]2C(=O)NCC(=O)NCC(=O)NCC(=O)N[C@@H](CCCCNC(=O)c2ccc3c(c2)C(=O)OC32c3ccc(O)cc3Oc3cc(O)ccc32)C(N)=O)NC(=O)[C@@H]2CCCN2C(=O)[C@H](Cc2ccc(O)cc2)NC(=O)[C@H](CC(C)C)NC(=O)[C@H](Cc2ccccc2)NC(=O)[C@@H]2CCCN2C(=O)[C@H](Cc2ccccc2)NC(=O)[C@H](CCSC)NC1=O", "note": "[SEQ ID NO: 369]", "values": [{"measurement": "Kd (mouse)", "setting": "[3]", "result": "NB"}]}
{"compound": "GSILYCINRNDPQCPYTAP (Synthetically generated cMet-binding peptide sequence) [SEQ ID NO: 101]", "values": [{"measurement": "HGF 100 ng/mL", "setting": "cMet-Fc fusion protein [4]", "result": 9, "unit": "S%"}, {"measurement": "Protein ELISA", "setting": "cMet-Fc fusion protein [1]", "result": 3.0, "unit": "fold over background"}, {"measurement": "WC ELISA", "setting": "[2]", "result": 1.27, "unit": "fold over background"}]}
{"compound": "AGWYNCSGENFWNCKWIGT (Synthetically generated cMet-binding peptide sequence) [SEQ ID NO: 082]", "values": [{"measurement": "HGF 100 ng/mL", "setting": "cMet-Fc fusion protein [4]", "result": 61, "unit": "%"}, {"measurement": "HGF 500 ng/mL", "setting": "cMet-Fc fusion protein [4]; HGF 500 ng/mL", "result": 79, "unit": "%"}, {"measurement": "Protein ELISA", "setting": "cMet-Fc fusion protein [1]", "result": 14.3, "unit": "fold over background"}, {"measurement": "WC ELISA", "setting": "[2]", "result": 1.43, "unit": "fold over background"}]}
{"compound": "CC(=O)NCC(=O)N[C@@H](CC(=O)O)C(=O)N[C@@H](Cc1ccc(O)cc1)C(=O)N[C@@H](CO)C(=O)N[C@@H](CCC(=O)O)C(=O)N[C@H]1CSSC[C@@H](C(=O)N[C@@H](Cc2ccc(O)cc2)C(=O)N[C@@H](CC(=O)O)C(=O)N[C@@H](CCCNC(=N)N)C(=O)N[C@@H](CC(=O)O)C(=O)N2CCC[C@H]2C(=O)NCC(=O)NCC(=O)NCC(=O)N[C@@H](CCCCNC(=O)c2ccc3c(c2)C(=O)OC32c3ccc(O)cc3Oc3cc(O)ccc32)C(N)=O)NC(=O)[C@H](CCCCN)NC(=O)[C@H](C(C)C)NC(=O)[C@H](CCC(=O)O)NC(=O)[C@H](Cc2ccccc2)NC(=O)[C@H](CO)NC(=O)[C@H](CC(=O)O)NC(=O)[C@@H]2CCCN2C(=O)[C@H](CCC(=O)O)NC(=O)[C@H](Cc2ccccc2)NC(=O)[C@H](Cc2ccccc2)NC1=O", "note": "[SEQ ID NO: 399]", "values": [{"measurement": "Kd (mouse)", "setting": "[3]", "result": "NB"}, {"measurement": "Protein ELISA", "setting": "cMet-Fc fusion protein [1]", "result": 11.3, "unit": "fold over background"}, {"measurement": "WC ELISA", "setting": "[2]", "result": 1.30, "unit": "fold over background"}]}
{"compound": "CC[C@H](C)[C@@H]1NC(=O)[C@H](CCCNC(=N)N)NC(=O)[C@H](Cc2c[nH]c3ccccc23)NC(=O)[C@@H](NC(=O)[C@@H]2CCCN2C(=O)[C@H](Cc2ccccc2)NC(=O)[C@H](Cc2ccccc2)NC(=O)[C@H](CO)NC(=O)CNC(C)=O)CSSC[C@@H](C(=O)N[C@@H](Cc2c[nH]cn2)C(=O)N[C@@H](C)C(=O)N[C@@H](CC(N)=O)C(=O)N[C@@H](C)C(=O)N2CCC[C@H]2C(=O)NCC(=O)NCC(=O)NCC(=O)N[C@@H](CCCCNC(=O)c2ccc3c(c2)C(=O)OC32c3ccc(O)cc3Oc3cc(O)ccc32)C(N)=O)NC(=O)[C@H](Cc2ccc(O)cc2)NC(=O)CNC(=O)[C@H](Cc2ccccc2)NC(=O)[C@H](CCCNC(=N)N)NC(=O)[C@H](CC(=O)O)NC1=O", "note": "[SEQ ID NO: 370]", "values": [{"measurement": "Kd (mouse)", "setting": "[3]", "result": "NB"}, {"measurement": "Protein ELISA", "setting": "cMet-Fc fusion protein [1]", "result": 13.3, "unit": "fold over background"}, {"measurement": "WC ELISA", "setting": "[2]", "result": 1.87, "unit": "fold over background"}]}
{"compound": "CC(=O)N[C@@H](C)C(=O)NCC(=O)N[C@@H](Cc1c[nH]c2ccccc12)C(=O)N[C@@H](Cc1ccccc1)C(=O)N[C@@H](CCC(N)=O)C(=O)N[C@H]1CSSC[C@@H](C(=O)N[C@@H](CCC(=O)O)C(=O)N[C@@H](CCCNC(=N)N)C(=O)N[C@@H](Cc2c[nH]cn2)C(=O)NCC(=O)N[C@H](C(=O)NCC(=O)NCC(=O)NCC(=O)N[C@@H](CCCCNC(=O)c2ccc3c(c2)C(=O)OC32c3ccc(O)cc3Oc3cc(O)ccc32)C(N)=O)[C@@H](C)O)NC(=O)[C@H](CCC(=O)O)NC(=O)[C@H](Cc2ccccc2)NC(=O)[C@H](CO)NC(=O)[C@@H]2CCCN2C(=O)[C@@H]2CCCN2C(=O)CNC(=O)[C@H](CCCCN)NC1=O", "note": "[SEQ ID NO: 051]", "values": [{"measurement": "Protein ELISA", "setting": "cMet-Fc fusion protein [1]", "result": 5.4, "unit": "fold over background"}, {"measurement": "WC ELISA", "setting": "[2]", "result": 1.33, "unit": "fold over background"}]}
